Source: patent EP0549352B1, “Tricyclic compounds as angiotensin II antagonists” (KYOWA HAKKO KOGYO CO., LTD., priority 1991, dated 1993)

Assays:
[1] = target: T1, AII receptor (Bos taurus, UniProt P25104); assay: Receptor binding test using bovine adrenal cortex ([125I]AII binding); conditions: test compound 0.1 µM; receptor binding of [125I]AII (2.5 × 10^-10M); bovine adrenal cortex membranes; room temperature, 2 hours; read-out: Inhibition Rate (%)
T1 construct: Tissue of bovine adrenal cortex was finely cut and suspended; from tissue; host or cells: bovine adrenal cortex membrane fraction
T1 sequence (P25104 1-359): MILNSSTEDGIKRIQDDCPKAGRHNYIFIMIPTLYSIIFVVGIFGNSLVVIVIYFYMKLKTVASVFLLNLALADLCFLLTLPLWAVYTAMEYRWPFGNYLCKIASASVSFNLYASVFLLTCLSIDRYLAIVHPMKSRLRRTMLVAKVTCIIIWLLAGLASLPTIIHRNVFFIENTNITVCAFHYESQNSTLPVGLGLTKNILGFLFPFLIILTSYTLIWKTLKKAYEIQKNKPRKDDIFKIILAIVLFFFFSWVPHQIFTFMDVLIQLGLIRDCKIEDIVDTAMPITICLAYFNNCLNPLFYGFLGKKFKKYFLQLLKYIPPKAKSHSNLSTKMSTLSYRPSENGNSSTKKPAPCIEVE
Experimental: Receptor binding test using bovine adrenal cortex
Tissue of bovine adrenal cortex was finely cut and suspended in a 0.25M sucrose solution containing NaHCO3, ethylenediaminetetraacetic acid (EDTA), leupepsin, pepstatin A and phenylmethanesulfonyl fluoride, followed by homogenization. The homogenate was centrifuged at 3,000 rpm for 10 minutes and the supernatant was centrifuged at 9,000 rpm. Then, the supernatant was further centrifuged at 30,000 rpm for 60 minutes and the precipitate was suspended in NaHCO3-EDTA solution, followed by centrifugation at 30,000 rpm for 60 minutes. The resulting precipitate was suspended in a phosphate buffer and the suspension was used for the binding test as an AII receptor source.
To a test compound or a solvent were added 250 µl of the AII receptor solution prepared above, 250 µl of Tris 50 mM buffer containing 0.2% bovine serum albumin (BSA), and 20 µl of [^125I]AII (2.5 × 10^-10M). The mixture was allowed to stand at room temperature for 2 hours and then filtered through a glass fiber filter (GF/B Wattman). The filter was placed in a test tube and the radioactivity was measured using a gamma-counter.
The inhibitory activity (inhibition rate) of the test compound (0.1 µM) against the receptor binding of [^125I]AII was calculated by the following equation. Inhibition Rate (%) =(1-((Binding Amount in the Presence of a Test Compound)-(Nonspecific Binding Amount))/((Total Binding Amount)-(Nonspecific Binding Amount)))× 100 [formula]
The binding amount in the presence of a test compound is the amount of radioactivity of [^125I]AII bound in the presence of a test compound (0.1 µM).
The total binding amount is the amount of radioactivity of [^125I]AII bound in the absence of a test compound.
The nonspecific binding amount is the amount of radioactivity of [^125I]AII bound in the presence of 1 µM AII.

[2] = tested on: hypertensive response to AII; assay: Inhibition test against hypertensive response to AII; format: in vivo, Male Wistar rats; conditions: test compound 1 mg/kg orally; 0.3 µg/kg AII intravenously one hour after dosing; average artery blood pressure
Experimental: Inhibition test against hypertensive response to AII
Male Wistar rats were anesthetized with pentobarbital. A cannula for blood pressure measurement was inserted from the right femoral artery into the abdominal aorta and another cannula for AII injection was inserted into the right femoral vein. The cannulae were passed under skin and fixed after coming out of the back, and the blood pressure was recorded on a polygraph from the artery cannula using a voltage transformer.
On the day after operation, 0.3 µg/kg AII was intravenously injected into each animal and the change in the average artery blood pressure was examined as the control pressor response. Then, a test compound (1 mg/kg) was orally administered and after one hour, 0.3 µg/kg AII was injected again, followed by examination of the pressor response. The inhibitory effect of the test compound against the control pressor response was determined as the inhibition rate.

inhibition at 0.1 µM [1]: 86%
SMILES: CCc1nc2c(C)cc(C)nc2n1Cc1ccc2c(c1)CCc1ccccc1N2Cc1nnn[nH]1 [Compound 32, 2-(5,7-Dimethyl-2-ethyl-3H-imidazo[4,5-b]pyridin-3-yl)methyl-5-(1H-tetrazol-5-yl)methyl-5H-10,11-dihydrodibenz[b,f]azepine]
inhibition rate against the control pressor response [2]: 45%
